From US7695948B2, “Antibodies that bind TNF-α converting enzyme” (Immunex Corporation, priority 1995, dated 2010)

Molecular target: T1, TACE (Homo sapiens, UniProt P78536)
T1 construct: The TACE was isolated and purified from the membranes of the human monocytic cell line, THP-1; endogenous in cells; host or cells: THP-1 human monocytic cell line (ATCC TIB 202), stimulated to produce TNF-α; Enzyme was solubilised from plasma membranes and purified by chromatography
Experiment: TACE activity assay (cleavage of TNF-α peptide substrate, HPLC)
Assay type: biochemical
Settings: dithiothreitol included in plasma membrane isolation from THP-1 cells
Experimental: As further described in Example 1, infra, a quantitative assay for TACE also may be used which assay involves incubating the peptide substrate, at about 1 mM, with TACE at 37° C. for a fixed period of time; stopping the reaction by the addition of an acid or a metal chelator; and determining the extent of cleavage by HPLC analysis.
This Example describes a method for purifying TACE. The TACE was isolated and purified from the membranes of the human monocytic cell line, THP-1, (ATCC no. TIB 202) that had been stimulated to produce TNF-α. THP-1 cells were chosen because they produce more TNF-α than HL-60 cells, a more commonly used human monocytic cell line. […]
This material was incubated at 37° C. for at least 4 hours with the TACE eluted from the DEAE-Sepharose, that had been treated with 1 mM N-methoxysuccinyl-Ala-Ala-Val -chloro-methylketone, 10 μg/ml leupeptin, and 1 mg/ml α1-protease inhibitor, all of which are commercially available. […] Based on this observation, a quantitative assay was established: the peptide, at 1 mM, was incubated with the enzyme at 37° C. for a fixed period of time, in the presence of 0.1 mM dichloroisocoumarin, 1 mM methoxysuccinyl-Ala-Ala-Pro-Val-chloromethyl-ketone, 10 μg/ml leupeptin, 10 μM bestatin, and 1 mg/ml α1-protease inhibitor (Sigma), all of which are commercially available. […]

T1 sequence (P78536 215-824): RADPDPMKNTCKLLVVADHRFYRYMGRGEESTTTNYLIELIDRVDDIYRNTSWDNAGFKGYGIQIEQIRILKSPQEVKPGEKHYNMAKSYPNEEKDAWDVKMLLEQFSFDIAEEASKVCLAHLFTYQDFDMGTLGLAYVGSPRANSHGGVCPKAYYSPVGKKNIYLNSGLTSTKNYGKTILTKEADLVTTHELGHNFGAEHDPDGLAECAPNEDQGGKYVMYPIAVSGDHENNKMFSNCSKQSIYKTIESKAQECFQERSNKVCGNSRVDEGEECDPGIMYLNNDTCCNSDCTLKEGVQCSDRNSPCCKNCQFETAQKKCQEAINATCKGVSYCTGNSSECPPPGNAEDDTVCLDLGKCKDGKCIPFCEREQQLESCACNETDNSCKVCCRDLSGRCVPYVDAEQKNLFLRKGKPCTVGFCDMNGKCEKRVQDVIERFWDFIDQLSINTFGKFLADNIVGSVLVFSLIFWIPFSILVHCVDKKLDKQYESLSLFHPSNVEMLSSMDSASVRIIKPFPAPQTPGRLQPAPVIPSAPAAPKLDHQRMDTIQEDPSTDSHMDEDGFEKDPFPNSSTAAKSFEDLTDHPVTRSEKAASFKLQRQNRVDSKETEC

TACE activity: blocks TACE activity
Compound: O[C@H](CS)[C@H](O)CS (racemic) [dithiothreitol]
